Entries after “also recorded” stand apart in the source; their conditions may differ.
Columns and labels:
[1] = tested on: primary human renal mesangial cells (HRMCs); test: Proliferation (BrdU) of HRMCs stimulated with IgA-containing immune complexes from IgAN patients; format: cell-based; conditions: immune complexes purified from three patients with IgA nephropathy
Description: Primary human mesangial cells in a culture were stimulated with pathogenic galactose deficient (Gd)-IgA containing immune complexes isolated from human IgA nephropathy patients. […] Specifically, pathogenic IgA-containing immune complexes were isolated from serum from either IgA nephropathy patients or age, gender and ethnicity-matched healthy individuals. Frozen serum was purchased from BioIVT and IgA-containing immune complexes were purified using jacalin affinity chromatography. […] Purified IgA-containing immune complexes were concentrated using a 100K Amicon filtration unit and the amount of total IgA and galactose-deficient IgA (Gd-IgA) in the immune complexes was measured by ELISA (ThermoFisher and IBL America, respectively). […] See, e.g., Novak et. al., Kidney International, 67, pp. 504-516; 2005; Novak et. al., Nephrol. Dial. Transplant, 26, pp. 3451-3457; 2011; Liang et. al., Cell Physiol. Biochem., 36, pp. 1793-1808; 2015; Nguyen et. al., Clin. Kidney 1, 12 (2), pp, 232-238; 2019.

[2] = tested on: ET-1 stimulated HRMC; test: Hallmark gene set enrichment in ET-1 stimulated HRMC treated with atrasentan; conditions: g-ddY and HRMC model systems; HRMC: atrasentan 1 nM and 25 nM with ET-1

CCCCN(CCCC)C(=O)CN1C[C@H](c2ccc3c(c2)OCO3)[C@@H](C(=O)O)[C@@H]1c1ccc(OC)cc1 [atrasentan, (2R,3R,4S)-4-(1,3-benzodioxol-5-yl)-1-[2-(dibutylamino)-2-oxoethyl]-2-(4-methoxyphenyl)pyrrolidine-3-carboxylic acid]
hyperproliferation of HRMCs induced by IgA containing immune complexes [1]: reduces the proliferation; also recorded: significantly attenuated | expression of hallmark gene sets (negative enrichment scores) [2]: under-expression

— patent US20220304978A1, “INHIBITING MESANGIAL CELL ACTIVATION” (Chinook Therapeutics, Inc., priority 2019, published 2022)
